The target in assay [1] is CDK2 (human) (UniProt P24941). Put plainly: Enzyme Assay.
The target of assay [2] is CDK2 (human) (UniProt P24941). The assay can be described thus: Cell-Based Assay.
In assay [3] the target is CDK2 (human) (UniProt P24941). The assay can be described thus: Cell-Based Assay. Particulars: rko.

Bounds are passed on as bounds.

With `NS(=O)(=O)c1ccc(N/C=C2\C(=O)Nc3ncc(-c4ccco4)cc32)cc1`, the IC50 on CDK2 (human) [1] stood at 55 nM.
Regarding `NS(=O)(=O)c1ccc(N/C=C2\C(=O)Nc3ncccc32)cc1`, the IC50 on CDK2 (human) [1] is 550 nM.
Regarding `O=C1Nc2nc(Cl)ccc2/C1=C/Nc1ccc2cn[nH]c2c1`, the IC50 on CDK2 (human) [1] worked out at 550 nM.
Still for that read-out and setting: the value for `NS(=O)(=O)c1ccc(N/C=C2\C(=O)Nc3ncc(-c4ccccc4)cc32)cc1` was 5500 nM; that for `O=C1Nc2ncc(-c3ccsc3)cc2/C1=C/Nc1ccc2cn[nH]c2c1` was 550 nM.
Same read-out and setting: the value for `O=C1Nc2ccc3ccncc3c2/C1=C/Nc1ccc(CCO)cc1` was 75 nM.
The same measure, in the same setting: as for `NS(=O)(=O)c1ccc(N/C=C2\C(=O)Nc3ncc(Br)cc32)cc1`, the figure is 55 nM; as for `Cc1cc(=O)[nH]n1-c1ccc(N/C=C2\C(=O)Nc3ccc4ncsc4c32)cc1`, 30 nM.
Regarding `NS(=O)(=O)c1ccc(N/C=C2\C(=O)Nc3cnccc32)cc1`, on CDK2 (human) [1], the IC50 stood at 55 nM.
`NS(=O)(=O)c1ccc(N/C=C2\C(=O)Nc3ncc(-c4ccsc4)cc32)cc1`: at CDK2 (human) [1], the IC50 was found to be 550 nM.
In turn, `NS(=O)(=O)c1ccc(N/C=C2\C(=O)Nc3nc(Cl)ccc32)cc1` gave an IC50 against CDK2 (human) [1] of 550 nM.
The same measure, in the same setting: the value for `NS(=O)(=O)c1ccc(N/C=C2/C(=O)Nc3ccncc32)cc1.NS(=O)(=O)c1ccc(N/C=C2\C(=O)Nc3ccncc32)cc1` was 55 nM; that for `O=C1Nc2ncc(-c3ccco3)cc2/C1=C/Nc1ccc2cn[nH]c2c1` was 5500 nM.
Turning to `CNS(=O)(=O)Cc1ccc(NN=C2C(=O)Nc3cc(C)c(O)c(C)c32)cc1`, the IC50 against CDK2 (human) [2] (mda-mb-468) is 300 nM.
For the molecule `NS(=O)(=O)c1ccc(NN=C2C(=O)Nc3ccc(-c4cnco4)cc32)cc1`, the IC50 on CDK2 (human) [2] (hdf-3), on CDK2 (human) [2] (mda-mb-468), at CDK2 (human) [2] (rko) and against CDK2 (human) [3] was 350 nM in each case.
`O=C1Nc2ncc(Br)cc2/C1=C/Nc1ccc2ncccc2c1` yielded an IC50 at CDK2 (human) [1] of 55 nM.
Same read-out and setting: as for `O=C1Nc2ccc3ccncc3c2/C1=C/Nc1ccc(Cc2ccncc2)cc1`, the figure is 30 nM; as for `CCOC(=O)c1cnc2c(c1)/C(=C/Nc1ccc(S(N)(=O)=O)cc1)C(=O)N2`, 55 nM; as for `O=C1Nc2ccc3ccncc3c2/C1=C/Nc1ccc(N2CCOCC2)cc1`, greater than 100 nM.
Still for that read-out and setting: the value for `CCOC(=O)c1cnc2c(c1)/C(=C/Nc1ccc3cn[nH]c3c1)C(=O)N2` was 55 nM.
On the same count and under the same terms, as for `O=C1Nc2ncc(Br)cc2/C1=C/Nc1ccc2cn[nH]c2c1`, the figure is 55 nM.
Take `CN(C)S(=O)(=O)c1ccc(N/C=C2\C(=O)Nc3ccc(-c4cnco4)cc32)cc1`: the IC50 against CDK2 (human) [2] (mda-mb-468) was greater than 5000 nM.
Take `NC(=O)c1ccc(N/C=C2\C(=O)Nc3ccc4ncsc4c32)cc1`: on CDK2 (human) [1], the IC50 was determined as 75 nM.
Same read-out and setting: as for `CCOC(=O)c1cnc2c(c1)/C(=C/Nc1ccc3ncccc3c1)C(=O)N2`, the figure is 550 nM.
